Data published in patent US6706663B2, “Herbicidal 3-heterocyclic substituted benzisothiazole and benzisoxazole compounds” (Wyeth, priority 2000, dated 2004).

Columns and labels:
CYPIR (Cyperus iria) = assay: Flooded paddy, preemergence weed control; format: in vivo; conditions: rated 3-4 weeks after treatment, 0-9 rating scale
Outline: (§1)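 In this preemergence paddy assay, weed seeds or organs are sown at up to 0.5 cm in silt loam and covered by 1.5–3 cm of water for the full test period. After treatment the pots are kept in a greenhouse, and herbicidal effect is rated 0-9 visually against a control.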

[1] = test system: SAGPY (Sagittaria pygmaea); assay: Flooded paddy, preemergence weed control; format: in vivo, L.; conditions: rated 3-4 weeks after treatment, 0-9 rating scale
Outline: as §1

[2] = test system: CHEAL (Chenopodium album); assay: Postemergence herbicidal evaluation; format: in vivo, L.; conditions: postemergence
Outline: (§2)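 Seedlings grown for about two weeks were sprayed postemergence and then kept under standard greenhouse care. Injury was rated visually 4–5 weeks after treatment on a 0–9 scale against untreated controls, and ratings from repeat tests were averaged.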

[3] = test system: AMBEL (Ambrosia artemisifolia); assay: Postemergence herbicidal evaluation; format: in vivo, L.; conditions: postemergence
Outline: as §2

[4] = test system: CASOB (Cassia obtusifolia); assay: Postemergence herbicidal evaluation; format: in vivo, L.; conditions: postemergence
Outline: as §2

[5] = test system: MOOVA (Monochoria vaginalis); assay: Flooded paddy, preemergence weed control; format: in vivo, Presl.; conditions: rated 3-4 weeks after treatment, 0-9 rating scale
Outline: as §1

GALAP (Galium aparine) [6] = assay: Preemergence herbicidal evaluation; format: in vivo; conditions: rated 4-5 weeks after treatment
Outline: (§3)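 Each species was sown separately in potting soil over roughly one inch of soil, and the surface sprayed with compound dissolved in aqueous acetone. Assessment used a 0–9 visual scale against a control after four to five weeks.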

ORYSAT (Rice, Tebonnet) [7] = assay: Preemergence herbicidal evaluation; format: in vivo, Oryza sativa, (L.) Tebonnet; conditions: rated 4-5 weeks after treatment
GALAP (Galium aparine) [8] = assay: Postemergence herbicidal evaluation; format: in vivo; conditions: postemergence
Outline: as §2

[9] = test system: CHEAL (Chenopodium album); assay: Preemergence herbicidal evaluation; format: in vivo, L.; conditions: rated 4-5 weeks after treatment
Outline: as §3

[10] = test system: AMBEL (Ambrosia artemisifolia); assay: Preemergence herbicidal evaluation; format: in vivo, L.; conditions: rated 4-5 weeks after treatment
Outline: as §3

[11] = test system: CASOB (Cassia obtusifolia); assay: Preemergence herbicidal evaluation; format: in vivo, L.; conditions: rated 4-5 weeks after treatment
Outline: as §3

[12] = test system: ABUTH (Abutilon theophrasti); assay: Postemergence herbicidal evaluation; format: in vivo, Medic.; conditions: postemergence
Outline: as §2

ORYSAT (Rice, Tebonnet) [13] = assay: Postemergence herbicidal evaluation; format: in vivo, Oryza sativa, (L.) Tebonnet; conditions: postemergence
Outline: as §2

[14] = test system: TRZAWR (Wheat, Winter, cv Riband); assay: Postemergence herbicidal evaluation; format: in vivo, Triticum aestivum; conditions: postemergence
Outline: as §2

[15] = test system: ECHCG (Echinochloa crus-galli); assay: Preemergence herbicidal evaluation; format: in vivo, (L.) Beau; conditions: rated 4-5 weeks after treatment
Outline: as §3

SETVI (Setaria viridis) [16] = assay: Preemergence herbicidal evaluation; format: in vivo, (L.) Beau; conditions: rated 4-5 weeks after treatment
Outline: as §3

[17] = test system: IPOHE (Ipomoea hederacea); assay: Postemergence herbicidal evaluation; format: in vivo, (L.) Jacq.; conditions: postemergence
Outline: as §2

SETVI (Setaria viridis) [18] = assay: Postemergence herbicidal evaluation; format: in vivo, (L.) Beau; conditions: postemergence
Outline: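 Visual injury score (0-9: stand, vigor, malformation, size, chlorosis, overall appearance vs untreated control) taken four to five weeks post-spray. Two-week-old seedlings received about 0.0040 to 1.000 kg/ha active compound in acetone/water with 0.5% TWEEN 20.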

CCCC1COC(c2nsc3ccc(-n4c(=O)cc(C(F)(F)F)n(C)c4=O)cc23)O1 (centres unmarked) [Compound 77, 1-methyl-3-[3-(4-propyl-1,3-dioxolan-2-yl)-1,2-benzisothiazol-5-yl]-6-(trifluoromethyl)uracil]
herbicidal rating, CYPIR (CYPIR (Cyperus iria); rate 0.0080 kg/ha): 0.0 | herbicidal rating, CYPIR (CYPIR (Cyperus iria); rate 0.0320 kg/ha): 7.0 | herbicidal rating, CYPIR (CYPIR (Cyperus iria); rate 0.1250 kg/ha): 9.0 | herbicidal rating, SAGPY ([1]; rate 0.0080 kg/ha): 0.0 | herbicidal rating, SAGPY ([1]; rate 0.0320 kg/ha): 0.0 | herbicidal rating, SAGPY ([1]; rate 0.1250 kg/ha): 5.0 | CHEAL herbicidal rating ([2]; rate 0.0320 kg/ha): 9.0 | CHEAL herbicidal rating ([2]; rate 0.0620 kg/ha): 9.0 | AMBEL herbicidal rating ([3]; rate 0.0320 kg/ha): 9.0 | AMBEL herbicidal rating ([3]; rate 0.0620 kg/ha): 9.0 | CASOB herbicidal rating ([4]; rate 0.0320 kg/ha): 4.0 | CASOB herbicidal rating ([4]; rate 0.0620 kg/ha): 6.0 | herbicidal rating, MOOVA ([5]; rate 0.0080 kg/ha): 0.0 | herbicidal rating, MOOVA ([5]; rate 0.0320 kg/ha): 9.0 | herbicidal rating, MOOVA ([5]; rate 0.1250 kg/ha): 9.0 | Preemergence herbicidal rating GALAP (GALAP (Galium aparine) [6]; Rate 0.1250 kg/ha): 7.0 | Preemergence herbicidal rating GALAP (GALAP (Galium aparine) [6]; Rate 0.2500 kg/ha): 9.0 | Preemergence herbicidal rating ORYSAT (ORYSAT (Rice, Tebonnet) [7]; Rate 0.0620 kg/ha): 5.0 | Preemergence herbicidal rating ORYSAT (ORYSAT (Rice, Tebonnet) [7]; Rate 0.1250 kg/ha): 5.0 | Preemergence herbicidal rating ORYSAT (ORYSAT (Rice, Tebonnet) [7]; Rate 0.2500 kg/ha): 5.5 | GALAP herbicidal rating (GALAP (Galium aparine) [8]; rate 0.0320 kg/ha): 4.0 | GALAP herbicidal rating (GALAP (Galium aparine) [8]; rate 0.0620 kg/ha): 7.0 | Preemergence herbicidal rating CHEAL ([9]; Rate 0.0620 kg/ha): 9.0 | Preemergence herbicidal rating CHEAL ([9]; Rate 0.1250 kg/ha): 9.0 | Preemergence herbicidal rating CHEAL ([9]; Rate 0.2500 kg/ha): 9.0 | Preemergence herbicidal rating AMBEL ([10]; Rate 0.0620 kg/ha): 8.5 | Preemergence herbicidal rating AMBEL ([10]; Rate 0.1250 kg/ha): 9.0 | Preemergence herbicidal rating AMBEL ([10]; Rate 0.2500 kg/ha): 9.0 | Preemergence herbicidal rating CASOB ([11]; Rate 0.0620 kg/ha): 2.5 | Preemergence herbicidal rating CASOB ([11]; Rate 0.1250 kg/ha): 4.5 | Preemergence herbicidal rating CASOB ([11]; Rate 0.2500 kg/ha): 7.5 | ABUTH herbicidal rating ([12]; rate 0.0320 kg/ha): 9.0 | ABUTH herbicidal rating ([12]; rate 0.0620 kg/ha): 9.0 | ORYSAT herbicidal rating (ORYSAT (Rice, Tebonnet) [13]; rate 0.0320 kg/ha): 2.0 | ORYSAT herbicidal rating (ORYSAT (Rice, Tebonnet) [13]; rate 0.0620 kg/ha): 4.0 | TRZAWR herbicidal rating ([14]; rate 0.0320 kg/ha): 2.0 | TRZAWR herbicidal rating ([14]; rate 0.0620 kg/ha): 3.5 | Preemergence herbicidal rating ECHCG ([15]; Rate 0.0620 kg/ha): 8.5 | Preemergence herbicidal rating ECHCG ([15]; Rate 0.1250 kg/ha): 9.0 | Preemergence herbicidal rating ECHCG ([15]; Rate 0.2500 kg/ha): 9.0 | Preemergence herbicidal rating SETVI (SETVI (Setaria viridis) [16]; Rate 0.0620 kg/ha): 8.5 | Preemergence herbicidal rating SETVI (SETVI (Setaria viridis) [16]; Rate 0.1250 kg/ha): 9.0 | Preemergence herbicidal rating SETVI (SETVI (Setaria viridis) [16]; Rate 0.2500 kg/ha): 9.0 | IPOHE herbicidal rating ([17]; rate 0.0320 kg/ha): 9.0 | IPOHE herbicidal rating ([17]; rate 0.0620 kg/ha): 9.0 | SETVI herbicidal rating (SETVI (Setaria viridis) [18]; rate 0.0320 kg/ha): 9.0 | SETVI herbicidal rating (SETVI (Setaria viridis) [18]; rate 0.0620 kg/ha): 5.0
